According to EP0175180A1, “Histargin-related compounds, a process for their preparation and their use as medicaments” (MICROBIAL CHEMISTRY RESEARCH FOUNDATION, priority 1984, dated 1986):

What was measured:
rats = assay: Acute toxicity test by intraperitoneal administration; format: in vivo
Description: Each of the compounds in accordance with the present invention has low toxicity and can safely be used as a medicine. The results of an acute toxicity test conducted by intraperitoneal administration of rats with compound Nos. la to 5a are summarized in Table 5.

carboxypeptidase B = target: T1, carboxypeptidase B (Sus scrofa, UniProt P09955); assay: Inhibition of the action of carboxypeptidase B; format: biochemical; details: carboxypeptidase B purified from swine pancreas, 37°C, 30 minutes, pH 8.0; read-out: CP-B inhibition IC50 (converted)
T1 construct: carboxypeptidase B purified from swine pancreas; purchased C; F. Boehringer & Soehne GmbH, Mannheim; host or cells: swine pancreas
T1 sequence (P09955 111-416): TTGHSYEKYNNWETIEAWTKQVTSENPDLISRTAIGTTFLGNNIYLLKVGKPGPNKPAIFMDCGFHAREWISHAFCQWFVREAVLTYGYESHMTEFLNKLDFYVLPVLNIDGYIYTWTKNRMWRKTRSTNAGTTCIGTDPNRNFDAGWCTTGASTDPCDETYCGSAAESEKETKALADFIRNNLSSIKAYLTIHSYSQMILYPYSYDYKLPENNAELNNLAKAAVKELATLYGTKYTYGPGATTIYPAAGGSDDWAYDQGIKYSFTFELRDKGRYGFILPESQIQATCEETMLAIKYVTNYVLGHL
Experimental: The inhibition of the action of carboxypeptidase B was determined by an improved version of the method for determination of the activity of angiotensin converting enzyme described in M. Hayakari et al., Analytical Biochemistry, 84, 361 - 369 (1978). The method proceeds as follows: A mixture of 0.05 mℓ of 0.05 M fibril-L-lysine (prepared by Tanpakushitsu Kenkyu Shoreikai) with 0.25 mℓ of 0.05 M Tris-HCℓ buffer solution (pH 8.0) and 0.15 mℓ of a solution containing a test compound was heated at 37°C for 3 minutes. To the heated solution, 0.05 mℓ of an aqueous solution containing 1 ug/mℓ of carboxypeptidase B purified from swine pancreas (product of C. F. Boehringer G Sohne GmbH, Mannheim) and 1 mg/mℓ of bovine albumin was added, and the mixture was subjected to reaction at 37°C for 30 minutes. The reaction was quenched by adding 0.03 mℓ of 1 N caustic soda. Fifteen minutes later, 2 mℓ of 0.05 M sodium phosphate buffer solution (pH 7.2) was added to the reaction mixture, and color reaction was performed by addition of 2 mℓ of 1% cyanuric chloride in methyl cellosolve. The mixture was left at room temperature for 15 minutes and the absorbance (a) at 382 nm was measured. The absorbance (b) of a control containing no test compound was also measured by repeating the same procedure. Blank tests were also conducted to determine the corresponding absorbances (a') and (b').
In each blank teat, the color reaction was performed by adding the enzyme solution after caustic soda so that no enzymatic reaction would take place. The percent inhibition of the action of carboxypeptidase B was calculated by the formula: [formula]

[1] = target: T2, angiotensin converting enzyme (Bos taurus, UniProt P12820); assay: Inhibition of the action of angiotensin converting enzyme; format: biochemical; details: enzyme partially purified from a bovine lung, 37°C, 30 minutes; read-out: IC50 (50% inhibition concentration) (converted)
T2 construct: angiotensin converting enzyme partially purified from a bovine lung; from tissue; host or cells: bovine lung
T2 sequence (P12820 29-1306): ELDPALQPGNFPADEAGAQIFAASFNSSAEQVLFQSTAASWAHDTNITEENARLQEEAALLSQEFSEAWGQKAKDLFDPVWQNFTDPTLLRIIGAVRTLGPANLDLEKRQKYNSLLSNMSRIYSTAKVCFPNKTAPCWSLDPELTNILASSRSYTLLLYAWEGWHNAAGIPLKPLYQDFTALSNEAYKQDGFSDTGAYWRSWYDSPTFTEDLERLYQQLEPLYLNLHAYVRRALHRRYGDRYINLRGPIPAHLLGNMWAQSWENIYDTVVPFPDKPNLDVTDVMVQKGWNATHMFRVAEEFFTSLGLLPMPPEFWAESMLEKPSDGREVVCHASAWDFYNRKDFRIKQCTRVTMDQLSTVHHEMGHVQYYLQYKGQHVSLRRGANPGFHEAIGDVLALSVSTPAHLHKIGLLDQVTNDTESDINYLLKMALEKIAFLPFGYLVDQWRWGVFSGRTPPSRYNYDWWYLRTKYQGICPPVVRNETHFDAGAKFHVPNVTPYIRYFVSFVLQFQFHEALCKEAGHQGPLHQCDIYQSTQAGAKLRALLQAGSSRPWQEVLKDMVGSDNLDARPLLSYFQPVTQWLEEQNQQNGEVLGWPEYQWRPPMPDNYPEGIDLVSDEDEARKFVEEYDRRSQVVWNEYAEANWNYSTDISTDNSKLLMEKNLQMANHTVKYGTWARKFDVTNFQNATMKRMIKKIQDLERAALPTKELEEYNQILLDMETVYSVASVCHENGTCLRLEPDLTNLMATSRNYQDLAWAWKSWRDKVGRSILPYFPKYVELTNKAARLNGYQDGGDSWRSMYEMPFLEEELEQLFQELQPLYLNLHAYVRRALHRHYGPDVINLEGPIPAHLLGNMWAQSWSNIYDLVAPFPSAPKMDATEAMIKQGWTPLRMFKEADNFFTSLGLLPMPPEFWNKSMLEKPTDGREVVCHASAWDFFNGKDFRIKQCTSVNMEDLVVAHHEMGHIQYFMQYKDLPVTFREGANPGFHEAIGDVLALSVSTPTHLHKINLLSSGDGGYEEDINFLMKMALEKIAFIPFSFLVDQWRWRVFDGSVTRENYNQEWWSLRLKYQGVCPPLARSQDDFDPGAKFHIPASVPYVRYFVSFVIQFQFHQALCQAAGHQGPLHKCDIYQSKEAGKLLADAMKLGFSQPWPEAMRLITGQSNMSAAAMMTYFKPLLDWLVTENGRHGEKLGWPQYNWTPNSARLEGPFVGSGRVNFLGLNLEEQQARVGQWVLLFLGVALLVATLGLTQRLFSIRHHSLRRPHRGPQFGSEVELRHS
Experimental: The inhibition of the action of angiotensin converting enzyme was determined by an inproved version of the method for determination of the activity of angiotensin converting enzyme described in M. Hayakari et al., Analytical Biochemistry, 84, 361 - 369 (1978). The method proceeds as follows: Substrate fibril-L-histidyl-L-leucine was dissolved at a concentration of 5 mg/mt in Tris-HCℓ buffer solution (0.5 M, pH 8.0) containing 0.3 M NaCℓ. A mixture of this solution (0.05 mℓ) and 0.40 mℓ of a solution containing a test compound was heated at 37°C for 3 minutes. To the heated solution, 0.05 ml of a solution containing angiotensin converting enzyme partially purified from a bovine lung was added, and the mixture was subjected to reaction at 37°C for 30 minutes. The reaction was quenched by adding 0.03 mℓ of 1 N caustic soda. […] The mixture was left at room temperature for 15 minutes and the absorbance (a) at 382 nm was measured. The absorbance (b) of a control containing no test compound was also measured by repeating the same procedure. Blank tests were also conducted to determine the corresponding absorbances (a') and (b'). […] The percent inhibition of the action of angiotensin converting enzyme was calculated by the formula: [formula]

carboxypeptidase A = target: T3, carboxypeptidase A (Bos taurus, UniProt P00730); assay: Inhibition of the action of carboxypeptidase A; format: biochemical; details: carboxypeptidase A purified from bovine pancreas, 37°C, 30 minutes, pH 7.5; read-out: CP-A inhibition IC50 (converted)
T3 construct: carboxypeptidase A purified from bovine pancreas; purchased Sigma Chemical Co; host or cells: bovine pancreas
T3 sequence (P00730 111-419): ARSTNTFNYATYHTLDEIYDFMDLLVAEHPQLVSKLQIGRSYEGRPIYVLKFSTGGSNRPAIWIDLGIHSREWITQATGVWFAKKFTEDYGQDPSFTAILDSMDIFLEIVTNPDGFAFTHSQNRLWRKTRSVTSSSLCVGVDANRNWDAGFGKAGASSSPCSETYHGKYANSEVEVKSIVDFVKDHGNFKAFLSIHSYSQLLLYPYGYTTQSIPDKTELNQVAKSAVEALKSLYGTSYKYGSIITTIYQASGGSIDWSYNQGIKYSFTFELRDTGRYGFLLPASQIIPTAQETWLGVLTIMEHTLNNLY
Experimental: (2) Inhibition of the action of carboxypeptidase A The inhibition of the action of carboxypeptidase A was determined by the method described in T. Tanaka et al., The Journal of Antibiotics, 37, 682 - 684 (1984). The method proceeds as follows: A mixture of 0.05 mℓ of 0.01 M fibril-L-phenylalanine (product of Sigma Chemical Co.) with 0.25 mℓ of 0.05 M Tris-HCℓ buffer solution (pH 7.5) containing 0.9 M NaCℓ. and 0.15 mℓ of a solution containing a teat compound was heated at 37°C for 3 minutes. To the heated solution, 0.05 mℓ of a diluted aqueous solution of carboxypeptidase A purified from bovine pancreas (product of Sigma Chemical Co.) which also contained 1 mg/mℓ of purified bovine albumin was added and the mixture was enbjected to reaction at 37°C for 30 minutes. The reaction was quenched by adding 0.03 mℓ of 1 M caustic soda. Fifteen minutes later, 2 mℓ of 0.06 M sodium phosphate buffer solution (pH 7.2) was added to the reaction mixture, and color reaction was performed by addition of 2 mℓ of 1% cyanuric chloride in methyl cellosolve. The mixture was left at room temperature for 15 minutes and the absorbance (a) at 382 nm was measured. The absorbance (b) of a control containing no test compound was also measured by repeating the same procedure. Blank tests were also conducted to determine the corresponding absorbances (a') and (b'). In each blank test, the color reaction was performed by adding the enzyme solution after caustic soda so that no enzymatic reaction would take place. The percent inhibition of the action of carboxypeptidase A was calculated by the formula: [formula]

[2] = intraperitoneal administration, rats, dose stated in each result

SMILES | Test results (acute toxicity) (rats; rat, in vivo, ip) | IC50 (carboxypeptidase B) [µM] | IC50 [1] [µM] | IC50 (carboxypeptidase A) [µM] | Test results (acute toxicity) (rats; [2])
O=C(O)[C@H](Cc1c[nH]cn1)NCCN[C@@H](Cc1c[nH]cn1)C(=O)O [1a, L-His-C2-L-His] | No toxicity observed upon administration of 400 mg/kg. | 178 | 2.08 | > 595 | –
O=C(O)[C@H](Cc1ccccc1)NCCN[C@@H](Cc1c[nH]cn1)C(=O)O [2a, L-His-C2-L-Phe] | – | 185 | – | 24.3 | No toxicity observed upon administration of 100 mg/kg.
NCCCC[C@H](NCCN[C@@H](Cc1c[nH]cn1)C(=O)O)C(=O)O [3a, L-His-C2-L-Lys] | – | > 611 | – | > 611 | No toxicity observed upon administration of 400 mg/kg.
O=C(O)[C@H](Cc1c[nH]cn1)NCCN1CCC[C@H]1C(=O)O [4a, L-His-C2-L-Pro] | – | > 675 | – | > 675 | No toxicity observed upon administration of 400 mg/kg.
O=C(O)C[C@H](NCCN[C@@H](Cc1c[nH]cn1)C(=O)O)C(=O)O [5a, L-His-C2-L-Asp] | No toxicity observed upon administration of 400 mg/kg. | > 636 | 1.59 | > 636 | –
NCCC[C@H](NCCN[C@@H](Cc1c[nH]cn1)C(=O)O)C(=O)O [6a, L-His-C2-L-Orn] | – | 357 | – | > 638 | –
CCOC(=O)[C@H](Cc1ccccc1)NCCN[C@@H](Cc1c[nH]cn1)C(=O)O [7a, L-His-C2-L-Phe-OEt] | – | > 534 | – | 390 | –
